Article doi:10.1101/2024.09.05.611349v1 (biorxiv, 2024)
Converted amounts (≈) assume the structure as drawn.

Assays:
[1] = tested on: Staphylococcus epidermidis MSSE 15-2; test: microbe, parasite or virus in culture; parameters: species or system gram-positive clinical isolates; settings: Staphylococcus epidermidis, MSSE152, read-out: MIC(μg/ml) / 1b
[2] = tested on: Staphylococcus epidermidis MSSE 15-58; test: microbe, parasite or virus in culture; parameters: species or system gram-positive clinical isolates; settings: Staphylococcus epidermidis, MSSE1558, read-out: MIC(μg/ml) / 1b
[3] = tested on: Staphylococcus epidermidis MSSE 15-1; test: microbe, parasite or virus in culture; parameters: species or system gram-positive clinical isolates; settings: Staphylococcus epidermidis, MSSE151, read-out: MIC(μg/ml) / 1b
[4] = tested on: Staphylococcus epidermidis MSSE 15-3; test: microbe, parasite or virus in culture; parameters: species or system gram-positive clinical isolates; settings: Staphylococcus epidermidis, MSSE153, read-out: MIC(μg/ml) / 1b
[5] = tested on: Staphylococcus epidermidis MSSE 15-61; test: microbe, parasite or virus in culture; parameters: species or system gram-positive clinical isolates; settings: Staphylococcus epidermidis, MSSE1561, read-out: MIC(μg/ml) / 1b
[6] = tested on: Staphylococcus epidermidis MSSE 15-4; test: microbe, parasite or virus in culture; parameters: species or system gram-positive clinical isolates; settings: Staphylococcus epidermidis, MSSE154, read-out: MIC(μg/ml) / 1b
in vitro [7] = settings: Mouse liver microsomes
in vitro [8] = settings: mouse, liver microsomes
S. aureus ATCC 29213 = test: microbe, parasite or virus in culture; settings: Staphylococcus aureus, ATCC29213, read-out: MIC (µg/mL)

For `CCCCCOc1ccc(C(=O)NNC(=S)NC(C)=O)cc1` [1b, N-(2-(4-(n-pentoxy)benzoyl)hydrazine-1-carbonothioyl)acetamide], the MIC [1] was 1 µg/mL (≈ 3.09 µM), the MIC [2] was 1 µg/mL (≈ 3.09 µM) and the MIC [3] was 1 µg/mL (≈ 3.09 µM). The MIC [4] was 1 µg/mL (≈ 3.09 µM), the MIC [5] was 1 µg/mL (≈ 3.09 µM) and the MIC [6] was 1 µg/mL (≈ 3.09 µM). For the same compound, the “Mouse liver microsomes T1/2” value (in vitro [7]) was 28.3 min, the microsomal CLint (in vitro [8]) was 49 µL/min/mg and the MIC (S. aureus ATCC 29213) was 0.78 µg/mL (≈ 2.41 µM).
